Where two headings read alike, the source gives them in different places. Ends that are not written are not given here. Peptide text beside a SMILES is read from it.
Legend:
[1] = system: Primary Dermal Fibroblasts; assay: Live/dead test (proliferation and cytotoxicity); format: cell-based; details: 100 ng/mL; for percentage of live cells (in words) / live cells: live/dead assay
Experimental: In the next stage of our research, the scope of biological tests was expanded to assess the safety of the found EGF fragments. Fragments 10–22, 13–19, 22–28, 26–34, 10–15, and 10–15a were selected for further study in a live/dead assay (Figure 7, Figure 8 and Figure 9).
Primary Dermal Fibroblast (ATCC, Manassas, USA) was grown in Fibroblast Basal Media supplemented with Fibroblast Growth Kit components (ATCC, Manassas, VA, USA). The cells were cultured under standard conditions (37 °C, humidified atmosphere of 5% CO2 in air). The medium was replaced every 2–3 days (75% confluence). Cells between the third and fifth passages were used in the experiment.
To evaluate proliferation and cytotoxicity, a “live/dead” test (Viability/Cytotoxicity Kit, Molecular Probes) was used. Cells were seeded at 6 × 10^4 cells/mL/well/sample in 2 mL of Fibroblast Basal Media supplemented with Fibroblast Growth Kit components (ATCC, Manassas, VA, USA). After 24 h, the medium was completely replaced. Cells in the positive control and negative control were cultured in medium containing FGF. In the remaining samples, media without FGF and with the addition of heat-inactivated serum were used. […] During the experiment, half of the medium was changed every 2 days. […] After that time, a mixture of two fluorescent dyes was used: Calcein-AM for the staining of living cells and ethidium bromide for the labeling of dead cells.
The samples were examined using an Olympus GX 71 fluorescence microscope equipped with a digital camera (DP70) (Olympus, Evident, Tokyo, Japan). The results were submitted to one-way ANOVA analysis.

[2] = target: Recombinant human EGFR protein (Active) (ab155639) (Homo sapiens, UniProt P00533); assay: Microscale thermophoresis (MST) binding to EGFR
Experimental: It is known from the literature data that the dissociation constant of this binding interaction varies from 0.2 to 8 nM [102]. […] It is recommended that the concentration of the ligand should be at least 20× higher than the expected dissociation constant. In the experiments, the final labeled EGFR concentration was 25 nM.
MST analysis was performed using a Monolith NT.115 device, excitation color—Nano-RED, excitation power—100%, medium MST power.
Recombinant human EGFR protein (Active) (ab155639) was reconstituted with 500 μL of 0.45 μm filtered distilled water. Then, 100 nM solution of EGFR was prepared by mixing 3.6 μL of protein with 96.4 μL PBS-T (PBS with 0.05% Tween20). RED-tris-NTA 2nd Generation (5 μM) was obtained by dissolving […] of dye in 50 μL PBS-T. A solution of dye in PBS-T (50 nM) was prepared by mixing 1 μL of dye with 99 μL PBS-T. A solution of the protein (95 μL) was mixed with the solution of dye (95 μL) and incubated at room temperature for 30 min. The sample was then centrifuged for 10 min at 4 °C. The final labeled protein concentration in the assay was 25 nM.
Then, 20 μL of the ligand was transferred to PCR tube 1. Subsequently, 10 μL of the solution was transferred to PCR tube 2 and mixed by pipetting; 10 μL of the solution from PCR tube 2 was transferred to PCR tube 3 and mixed by pipetting; this procedure was repeated for PCR tubes 4–16. From PCR tube 16, 10 μL of the solution was discarded. Finally, 10 μL of labeled EGFR was added to each PCR tube and mixed by pipetting. The samples were incubated for 30 min at room temperature prior to MST assays. Analyses were performed using NanoTemper Technologies (München, Germany).

[3] = system: anti-EGF rabbit polyclonal antibodies (Abcam 9695); assay: Dot blot of cellulose-immobilized EGF decapeptides with anti-EGF polyclonal antibodies; format: binding; details: for Intensity (ability to interact with polyclonal antibodies) / interaction with polyclonal anti-EGF antibodies (in words): peptide on cellulose matrix; for Intensity (ability to interact with polyclonal antibodies): antibody 1:1000, 1 h room temperature; for Intensity (Staining Value): scanned spot, 256 gray scale (ImageJ);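 for Intensity (Staining Value): higher gray value means stronger antibody binding with above 120 very strong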
Experimental: Dot blot reactions were performed using primary anti-EGF rabbit polyclonal antibodies (Abcam 9695) (Cambridge, UK) and secondary goat anti-rabbit antibodies conjugated with HRP (Abcam 205718). The procedure for using the dot blot method to analyze peptides immobilized on a cellulose matrix through a triazine linker was optimized in a previous study by the authors and ensures the elimination of non-specific impacts.
The solution was then removed, and the membranes were treated overnight at room temperature with blocking buffer (3% BSA in PBS, 40 mL, pH 7.4). The cellulose sheets were then washed with PBS buffer (40 mL, 5 min, pH 7.4). […] The membranes were then washed with Tween-80 solution in PBS (0.4%, 40 mL, 2 × 5 min) and PBS (40 mL, 5 min). Goat Anti-Rabbit IgG antibodies were conjugated with HRP (Abcam 205718, 20 μL) diluted 1:1000 in 1% BSA in PBS (20 mL, pH 7.4) and then incubated with cellulose sheets for 30 min at room temperature. The membranes were then washed with Tween-80 solution in PBS (0.4%, 40 mL, 2 × 5 min) and PBS (40 mL, 5 min). Visualization of the reactions was performed using 4-chloro-1-naphtol (Sigma–Aldrich). The cellulose sheets were placed into 0.15 mg/mL solution of 4-chloro-1-naphtol in MeOH:PBS (1:5, 15 mL) with the addition of 7.5 μL of H2O2; reaction time was 30 min. The membranes were washed with distilled water, air-dried, and scanned. In places where immunological complexes developed, blue precipitate was observed. The applied dot blot test procedure ensures the elimination of non-specific interactions. Additionally, using the same SPOT synthesis procedure, a library of type IV collagen fragments was obtained. […] The gray levels of the immunological reactions were determined using ImageJ Version 1.53n7 (https://imagej.nih.gov/ij/index.html, accessed on 17 October 2021) computer imaging software.

[4] = target: T1, Recombinant human EGFR protein (Active) (ab155639) (human, UniProt P00533 25-645, labelled with RED-tris-NTA 2nd Generation dye); assay: MST; RED-tris-NTA-labelled EGFR 25 nM, ligand in a 16-step 1:1 dilution series in PBS-T, 30 min at room temperature; assay concentration of the ligand 500 μM; details: both partners purified
T1 construct: epidermal growth factor receptor (EGFR, ErbB-1), human, recombinant; also called EGF receptor; ErbB-1; source: bought: Abcam (ab155639), recombinant

[5] = target: T1, Recombinant human EGFR protein (Active) …; assay: MST; RED-tris-NTA-labelled EGFR 25 nM, ligand in a 16-step 1:1 dilution series in PBS-T, 30 min at room temperature; assay concentration of the ligand 10 mM; details: both partners purified

In the case of YIEALDK [22–28], the “percentage of live cells (in words)” value ([1]; after 1 day) is reported as “slightly less survivability”.

With H-YCLHDGV-OH [13–19] the “percentage of live cells (in words)” value ([1]; after 1 day) was “slightly less survivability”, the live cells ([1]; after 7 days) was 99.30% and the live cells ([1]; after one day) was 97.84%.

For `CC(C)C[C@H](N)C(=O)N[C@@H](CC(=O)O)C(=O)N[C@@H](CCCCN)C(=O)N[C@@H](Cc1ccc(O)cc1)C(=O)N[C@@H](C)C(=O)N[C@@H](CS)C(=O)N[C@@H](CC(N)=O)C(=O)N[C@@H](CS)C(=O)N[C@H](C(=O)O)C(C)C` [26–34] (H-LDKYACNCV-OH), the “number of cells (fibroblast proliferation, in words)” value ([1]; after 1 day of incubation) was “more cells than in the medium with EGF”, the “percentage of live cells (in words)” value ([1]; after 1 day) was “one of the highest percentages of live cells” and the “percentage of live cells (in words)” value ([1]; after 7 days) was “one of the highest percentages of live cells”.

Work on VVGYIGERCQYRDL [34–47] yielded a Kd ([2]; MST, range over the tested fragment concentrations, labeled EGFR 25 nM, read-out: dissociation constants (range over the assay concentrations)) of 0.5 to 5.92 µM.

In the case of `CSCC[C@H](NC(=O)[C@H](CS)NC(=O)[C@@H](NC(=O)CNC(=O)[C@H](CC(=O)O)NC(=O)[C@H](Cc1c[nH]cn1)NC(=O)[C@H](CC(C)C)NC(=O)[C@H](CS)NC(=O)[C@H](Cc1ccc(O)cc1)NC(=O)CNC(=O)[C@H](CC(=O)O)NC(=O)[C@@H](N)Cc1c[nH]cn1)C(C)C)C(=O)N[C@@H](Cc1ccc(O)cc1)C(=O)O` [10–22] (H-HDGYCLHDGVCMY-OH; C-terminus assumed), the “percentage of live cells (in words)” value ([1]; after 1 day) is reported as “slightly less survivability”, the live cells ([1]; after 7 days) is reported as 99.25% and the live cells ([1]; after one day) is reported as 97.13%. The “dissociation constants (range over the assay concentrations)” value ([2]; MST, range over the tested fragment concentrations, labeled EGFR 25 nM) was 0.07 to 416 µM.

For “EGF: native EGF (ab9697), recombinant human EGF protein; 53-amino acid polypeptide”, the “number of cells (fibroblast proliferation, in words)” value ([1]; after 7 days of incubation) was “induced cell growth”.

`CC[C@H](C)[C@H](N)C(=O)N[C@@H](CCC(=O)O)C(=O)N[C@@H](C)C(=O)N[C@@H](CC(C)C)C(=O)O` [23–26] (H-IEAL-OH) was tested, and the Kd ([2]; MST, assay concentration 10 mM, labeled EGFR 25 nM, read-out: Kd) was 5090 µM.

In the case of HDGYCL [10–15], the live cells ([1]; after 7 days) is reported as 99.52% and the live cells ([1]; after one day) is reported as 98.73%.

QYRDL [43–47] was tested, and the “percentage of live cells (in words)” value ([1]; after 7 days) was “highest live percentage of cells for all tested peptides” and the Kd [2] was 4.93 to 125 µM.

With IGERCQ [38–43] the Kd ([2]; MST, range over the tested fragment concentrations, labeled EGFR 25 nM, read-out: Kd (range over the assay concentrations)) was 0.108 to 0.709 µM.

In the case of H-^4SECPLSHDGY^13-matrix [A4], the “Intensity (ability to interact with polyclonal antibodies)” value [3] is reported as “+/− (moderately strong (+/−), for which the color intensity value was in the range of 90–45)” and the “Intensity (Staining Value)” value [3] is reported as 55.2.

For H-^34VVGYIGERCQ^43-matrix [B14], the “Intensity (ability to interact with polyclonal antibodies)” value [3] was “+/− (moderately strong (+/−), for which the color intensity value was in the range of 90–45)” and the “Intensity (Staining Value)” value [3] was 69.4.

For H-^42CQYRDLKWWE^51-matrix [C2], the “interaction with polyclonal anti-EGF antibodies (in words)” value [3] was “moderate binding to antibodies”, the “Intensity (ability to interact with polyclonal antibodies)” value [3] was “+ (strong (+), for which the staining intensity value was in the range of 120–90)” and the “Intensity (Staining Value)” value [3] was 91.4.

H-^10HDGYCLHDGV^19-matrix [A10] was tested, and the “Intensity (ability to interact with polyclonal antibodies)” value [3] was “+ (strong (+), for which the staining intensity value was in the range of 120–90)” and the “Intensity (Staining Value)” value [3] was 91.3.

In the case of H-^41RCQYRDLKWW^50-matrix [C1], the “interaction with polyclonal anti-EGF antibodies (in words)” value [3] is reported as “moderate binding to antibodies”, the “Intensity (ability to interact with polyclonal antibodies)” value [3] is reported as “+ (strong (+), for which the staining intensity value was in the range of 120–90)” and the “Intensity (Staining Value)” value [3] is reported as 91.5.

For H-^3DSECPLSHDG^12-matrix [A3], the “Intensity (ability to interact with polyclonal antibodies)” value [3] was “+/− (moderately strong (+/−), for which the color intensity value was in the range of 90–45)” and the “Intensity (Staining Value)” value [3] was 71.7.

B1: EGF fragment 43–47 (QYRDL) (peptide)
peptide: QYRDL
notes: EGF, human, residues 43-47; numbers count on: the mature protein; source: synthetic peptide (SPPS, Fmoc; crude, without preparative HPLC)
Work on B1 yielded a Kd [4] of 4.93 µM and a Kd [5] of 125 µM.

Source: paper PMC10855902 (International Journal of Molecular Sciences, 2024)
